The source of these data is US20240270699A1, “COMPOUNDS HAVING N-ARYLPYRIMIDIN-2-AMINE DERIVATIVES AS THERAPEUTIC AGENTS” (Lomond Therapeutics, Inc., priority 2021, published 2024).

Like-named read-outs stand apart in the source and are kept apart here. A value given as a limit tells only on which side of the number the result lay.

One data set has as its system Jurkat cells. Description: IL-2 release Jurkat assay (anti-CD3/anti-CD28 stimulation, IL-2 ELISA). The note with it: activation with 400 ng/mL aCD3 + 400 ng/mL aCD28, 24 hours. Type of data set: cell-based, human.
Data set [1] can be described thus: Pharmacokinetic (PK) study in mice. Type of data set: in vivo. The following applies: mouse, plasma, male CD-1 mice, PO 10 mg/kg, solution, vs IV 2 mg/kg, read-out: Fabs, % (percent bioavailability).
In the next data set the target is T1, recombinant HPK1 protein (Homo sapiens, UniProt Q92918).
T1 construct: purchased Promega V6398
T1 sequence (Q92918 1-346 limits assumed): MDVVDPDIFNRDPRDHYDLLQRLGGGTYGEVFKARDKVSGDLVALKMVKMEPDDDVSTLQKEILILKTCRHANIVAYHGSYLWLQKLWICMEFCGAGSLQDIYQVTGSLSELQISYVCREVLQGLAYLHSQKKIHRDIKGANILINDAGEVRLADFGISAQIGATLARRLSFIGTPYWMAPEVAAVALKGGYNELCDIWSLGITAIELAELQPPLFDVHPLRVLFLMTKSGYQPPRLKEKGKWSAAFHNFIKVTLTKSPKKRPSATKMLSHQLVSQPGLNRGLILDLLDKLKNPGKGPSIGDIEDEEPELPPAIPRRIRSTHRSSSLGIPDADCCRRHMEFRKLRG
Description: Primary assay of HPK1 enzymatic activity inhibition (ADP-Glo luminescence). The data set is classed as biochemical. The note with it: recombinant HPK1, MBP substrate, 1 hour at room temperature.

Setting [2] is: vehicle 80% PEG400, 10% TPGS and 10% ethanol.
The mark [3] stands for this setting: Table B: Jurkat, 1.5 μM of tested compounds.
Setting [4] is: Table C: Jurkat, 6 μM of tested compounds, stimulated vehicle = A.

The term bioavailability denotes the share of a dose that reaches the circulation, judged against a reference dose that is usually intravenous. For orientation: IC50 means the concentration that gives 50% inhibition. Consider `Cc1noc(-c2cnc(Nc3ccc4c(c3)CCNC4=O)nc2N[C@H](CO)c2ccccc2)n1` [Compound 558, 6-[[4-[[(1S)-2-hydroxy-1-phenyl-ethyl]amino]-5-(3-methyl-1,2,4-oxadiazol-5-yl)pyrimidin-2-yl]amino]-3,4-dihydro-2H-isoquinolin-1-one], for which the “IL-2, pg/mL stimulated” value in the data set with Jurkat cells (Table D: Jurkat, 6 μM of tested compounds, stimulated vehicle = B) is recorded as “D (150 pg/mL≤IL-2)”. For the same compound, the bioavailability in data set [1] (setting [2]) amounted to 16.3%. Besides, the IC50 at recombinant HPK1 protein is under 50 nM.

Regarding `O=C1CCc2cc(Nc3ncc(-c4nnco4)c(N[C@H](CO)c4ccccc4)n3)ccc2N1` [Compound 19, 6-[[4-[[(1S)-2-hydroxy-1-phenyl-ethyl]amino]-5-(1,3,4-oxadiazol-2-yl)pyrimidin-2-yl]amino]-3,4-dihydro-1H-quinolin-2-one], in the data set on Jurkat cells (setting [3]), the “IL-2, pg/mL stimulated” value is “B (5.0 pg/mL≤IL-2<25.0 pg/mL)”. For the same compound, in data set [1] (setting [2]), the bioavailability was determined as 16.3%. Further, the concentration for half-maximal inhibition (IC50) on recombinant HPK1 protein is under 50 nM.

For the compound `CS(=O)(=O)c1ccc(Nc2ncc(-c3nnco3)c(N[C@H](CO)c3ccccc3)n2)cc1F` [Compound 161, (2S)-2-{[2-{[3-fluoro-4-(methylsulfonyl)phenyl]amino}-5-(1,3,4-oxadiazol-2-yl)pyrimidin-4-yl]amino}-2-phenylethanol], the “IL-2, pg/mL stimulated” value in the data set on Jurkat cells (setting [4]) is reported as “C (100 pg/mL≤IL-2<150 pg/mL)”. For the same compound, the bioavailability in data set [1] (vehicle 20% HP-b-CD) came out at 95.1%. Moreover, the IC50 at recombinant HPK1 protein is under 50 nM.

In the case of `Cc1noc(-c2cnc(Nc3ccc4c(c3)CCC(=O)N4)nc2N[C@H](CO)c2ccccc2)n1` [Compound 86, 6-[[4-[[(1S)-2-hydroxy-1-phenyl-ethyl]amino]-5-(3-methyl-1,2,4-oxadiazol-5-yl)pyrimidin-2-yl]amino]-3,4-dihydro-1H-quinolin-2-one], the “IL-2, pg/mL stimulated” value in the data set on Jurkat cells (setting [3]) is “C (25.0 pg/mL≤IL-2<35.0 pg/mL)”. For the same compound, the bioavailability in data set [1] (setting [2]) amounted to 83.6%. Further, on recombinant HPK1 protein, the 50% inhibitory concentration (IC50) was under 50 nM.

Consider `Cc1noc(-c2cnc(Nc3ccc4c(c3)CNC4=O)nc2N[C@H](CO)c2ccccc2)n1` [Compound 571, 5-[[4-[[(1S)-2-hydroxy-1-phenyl-ethyl]amino]-5-(3-methyl-1,2,4-oxadiazol-5-yl)pyrimidin-2-yl]amino]isoindolin-1-one], for which the “IL-2, pg/mL stimulated” value in the data set with Jurkat cells (setting [3]) is “C (25.0 pg/mL≤IL-2<35.0 pg/mL)”. Moreover, in data set [1] (setting [2]), the bioavailability was 8%. Further, the 50% inhibitory concentration (IC50) on recombinant HPK1 protein was under 50 nM.

Regarding `O=C1NCCc2cc(Nc3ncc(-c4nnco4)c(N[C@H](CO)c4ccccc4)n3)ccc21` [Compound 563, 6-[[4-[[(1S)-2-hydroxy-1-phenyl-ethyl]amino]-5-(1,3,4-oxadiazol-2-yl)pyrimidin-2-yl]amino]-3,4-dihydro-2H-isoquinolin-1-one], the bioavailability in data set [1] (setting [2]) turned out to be 9.2%. Besides, the IC50 on recombinant HPK1 protein is under 50 nM.

On to `O=S1(=O)CCCc2cc(Nc3ncc(-c4nnco4)c(N[C@H](CO)c4ccccc4)n3)ccc21` [Compound 228, (2S)-2-[[2-[(1,1-dioxo-3,4-dihydro-2H-thiochromen-6-yl)amino]-5-(1,3,4-oxadiazol-2-yl)pyrimidin-4-yl]amino]-2-phenyl-ethanol], for which the “IL-2, pg/mL stimulated” value in the data set with Jurkat cells (Table E: Jurkat, 1.5 μM of tested compounds) is listed as “B (50 pg/mL≤IL-2<100 pg/mL)”. Also, the bioavailability in data set [1] (setting [2]) is 11.4%. Further, the IC50 at recombinant HPK1 protein is under 50 nM.

For the compound `Cc1noc(-c2cnc(Nc3ccc(S(C)(=O)=O)c(F)c3)nc2N[C@H](CO)c2ccccc2)n1` [Compound 270, (2S)-2-{[2-{[3-fluoro-4-(methylsulfonyl)phenyl]amino}-5-(3-methyl-1,2,4-oxadiazol-5-yl)pyrimidin-4-yl]amino}-2-phenylethanol], in the data set with Jurkat cells (setting [4]), the “IL-2, pg/mL stimulated” value is reported as “A (IL-2<50 pg/mL)”. Further, in data set [1] (setting [2]), the bioavailability amounted to 76.5%. Moreover, the IC50 at recombinant HPK1 protein was under 50 nM.

For the compound `CCOC(=O)c1cnc(Nc2ccc(S(C)(=O)=O)c(F)c2)nc1N[C@H](CO)c1ccccc1` [Compound 210, Ethyl 2-{[3-fluoro-4-(methylsulfonyl)phenyl]amino}-4-{[(1S)-2-hydroxy-1-phenylethyl]amino}pyrimidine-5-carboxylate], in the data set with Jurkat cells (setting [3]), the “IL-2, pg/mL stimulated” value was “D (35.0 pg/mL≤IL-2)”. At recombinant HPK1 protein, the IC50 fell in the range of 200 to 500 nM.

Consider `CCOC(=O)c1cnc(Nc2ccc(S(C)(=O)=O)cc2F)nc1N[C@H](CO)c1ccccc1` [Compound 211, Ethyl 2-{[2-fluoro-4-(methylsulfonyl)phenyl]amino}-4-{[(1S)-2-hydroxy-1-phenylethyl]amino}pyrimidine-5-carboxylate], for which the “IL-2, pg/mL stimulated” value in the data set with Jurkat cells (setting [4]) is listed as “B (50 pg/mL≤IL-2<100 pg/mL)”. Besides, on recombinant HPK1 protein, the IC50 fell in the range of 50 to 200 nM.

For the compound `CNC(=O)c1cnc(Nc2ccc(F)c(-c3ccccc3)c2)nc1N[C@H](CO)c1ccccc1` [Compound 82, 2-[(6-fluorobiphenyl-3-yl)amino]-4-{[(1S)-2-hydroxy-1-phenylethyl]amino}-N-methylpyrimidine-5-carboxamide], in the data set with Jurkat cells (setting [3]), the “IL-2, pg/mL stimulated” value is recorded as “C (25.0 pg/mL≤IL-2<35.0 pg/mL)”. The half-inhibitory concentration (IC50) on recombinant HPK1 protein was in the range of 50 to 200 nM.

In the case of `CNC(=O)c1cnc(Nc2ccc(S(C)(=O)=O)c(F)c2)nc1N[C@H](CO)c1ccccc1` [Compound 105, 2-{[3-fluoro-4-(methylsulfonyl)phenyl]amino}-4-{[(1S)-2-hydroxy-1-phenylethyl]amino}-N-methylpyrimidine-5-carboxamide], in the data set on Jurkat cells (setting [3]), the “IL-2, pg/mL stimulated” value is listed as “C (25.0 pg/mL≤IL-2<35.0 pg/mL)”. Further, the IC50 on recombinant HPK1 protein was in the range of 50 to 200 nM.

`Cc1noc(-c2cnc(Nc3ccc(S(C)(=O)=O)c(C)c3)nc2N[C@H](CO)c2ccccc2)n1` [Compound 252, (2S)-2-{[2-{[3-methyl-4-(methylsulfonyl)phenyl]amino}-5-(3-methyl-1,2,4-oxadiazol-5-yl)pyrimidin-4-yl]amino}-2-phenylethanol]: the “IL-2, pg/mL stimulated” value in the data set with Jurkat cells (setting [4]) was “B (50 pg/mL≤IL-2<100 pg/mL)”. Besides, the bioavailability in data set [1] (setting [2]) was found to be 19.9%. Also, the IC50 on recombinant HPK1 protein was 50 to 200 nM.

With `CCOC(=O)c1cnc(Nc2ccc(C(=O)N(C)C)cc2)nc1N[C@H](CO)c1ccccc1` [Compound 47, Ethyl 2-[4-(dimethylcarbamoyl)anilino]-4-[[(1S)-2-hydroxy-1-phenyl-ethyl]amino]pyrimidine-5-carboxylate], in the data set with Jurkat cells (setting [4]), the “IL-2, pg/mL stimulated” value is “B (50 pg/mL≤IL-2<100 pg/mL)”. Also, on recombinant HPK1 protein, the IC50 was 50 to 200 nM.
